Data as given in ChEMBL document CHEMBL5316334, “Structure-Based Design of Novel Alkynyl Thio-Benzoxazepinone Receptor-Interacting Protein Kinase-1 Inhibitors: Extending the Chemical Space from the Allosteric to ATP Binding Pockets” (J Med Chem, 2023).
Each block holds one molecule with its values, some of them ahead of it. Active and inactive are the calls of the source. The calls are words filed in the database; no cut-off is given here.

Experiments:
[1] = target: T1, Receptor-interacting serine/threonine-protein kinase 1 (Homo sapiens, UniProt Q13546); assay: Binding affinity to recombinant RIPK1 (unknown origin) assessed as dissociation constant by kinomescan assay
T1 sequence (Q13546 whole entry): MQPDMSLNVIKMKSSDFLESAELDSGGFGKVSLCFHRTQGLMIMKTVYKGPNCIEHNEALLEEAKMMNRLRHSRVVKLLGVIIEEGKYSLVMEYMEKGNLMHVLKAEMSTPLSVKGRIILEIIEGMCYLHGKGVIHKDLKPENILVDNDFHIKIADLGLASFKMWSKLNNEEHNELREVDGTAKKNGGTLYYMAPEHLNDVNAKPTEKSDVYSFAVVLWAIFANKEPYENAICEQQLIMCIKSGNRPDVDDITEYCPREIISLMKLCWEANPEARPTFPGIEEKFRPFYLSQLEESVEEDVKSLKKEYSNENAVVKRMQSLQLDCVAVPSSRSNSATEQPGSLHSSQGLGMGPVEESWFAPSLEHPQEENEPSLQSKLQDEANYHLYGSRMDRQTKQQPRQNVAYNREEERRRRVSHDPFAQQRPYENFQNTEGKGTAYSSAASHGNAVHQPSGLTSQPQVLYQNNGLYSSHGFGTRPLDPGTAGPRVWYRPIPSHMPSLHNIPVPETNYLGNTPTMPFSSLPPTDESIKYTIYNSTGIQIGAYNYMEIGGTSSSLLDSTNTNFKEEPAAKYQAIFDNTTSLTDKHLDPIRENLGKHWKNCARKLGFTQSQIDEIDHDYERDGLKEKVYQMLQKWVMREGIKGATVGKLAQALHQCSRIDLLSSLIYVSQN

HT-29 [2] = assay: Cytotoxicity against human HT-29 cells assessed as reduction in cell viability at 100 uM measured for 16 to 24 hrs by Cell-titer-glo assay; format: functional, cell-based; details: time 16-24 hrs
HT-29 [3] = assay: Anti-necroptosis activity against human HT-29 cells assessed as inhibition of TSZ-induced necroptosis preincubated for 30 mins followed by compound addition and measured for 16 hrs by Cell-titer-glo assay; format: functional, cell-based
HT-29 [4] = assay: Cytotoxicity against human HT-29 cells assessed as reduction in cell viability measured for 16 to 24 hrs by Cell-titer-glo assay; format: functional; details: time 16-24 hrs
L929 = assay: Anti-necroptosis activity against TNFalpha-induced mouse L929 cells assessed as cell viability preincubated for 1 hr followed by TNFalpha stimulation and measured after 18 hrs by Cell-titer-glo assay; format: functional, cell-based
HT-29 [5] = assay: Anti-necroptosis activity against human HT-29 cells assessed as inhibition of TSZ-induced necroptosis pretreated with compound followed by TSZ induction and measured for 12 hrs by Cell-titer-glo assay; format: functional, cell-based; details: dose 0.63-100 nM
[6] = Half life in mouse; format: ADME, organism-based; details: in vivo

Kd [1]: 230 nM
SMILES: CN1C(=S)[C@@H](NC(=O)c2n[nH]c(Cc3ccccc3)n2)COc2ccc(C#Cc3cccc([N+](=O)[O-])c3)cc21
Activity (HT-29 [2]): inactive | EC50 (HT-29 [3]): 9.2 nM | CC50 (HT-29 [4]): > 100000 nM

SMILES: CN1C(=S)[C@@H](NC(=O)c2n[nH]c(Cc3ccccc3)n2)COc2ccc(C#Cc3ccc(C(F)(F)F)cc3)cc21
Activity (HT-29 [2]): inactive | EC50 (HT-29 [3]): 25.5 nM | CC50 (HT-29 [4]): > 100000 nM

Kd [1]: 150 nM
SMILES: CN1C(=S)[C@@H](NC(=O)c2n[nH]c(Cc3ccccc3)n2)COc2ccc(C#Cc3ccc([N+](=O)[O-])cc3)cc21
Activity (HT-29 [2]): inactive | EC50 (HT-29 [3]): 6.8 nM | CC50 (HT-29 [4]): > 100000 nM

Kd [1]: 40 nM
SMILES: CN1C(=S)[C@@H](NC(=O)c2n[nH]c(Cc3ccccc3)n2)COc2ccc(C#CC3CC3)cc21
EC50 (HT-29 [3]): 8.7 nM | CC50 (HT-29 [4]): > 100000 nM

Kd [1]: 83 nM
SMILES: COC(=O)c1ccc(C#Cc2ccc3c(c2)N(C)C(=S)[C@@H](NC(=O)c2n[nH]c(Cc4ccccc4)n2)CO3)cc1
Activity (HT-29 [2]): inactive | EC50 (HT-29 [3]): 5.8 nM | CC50 (HT-29 [4]): > 100000 nM

SMILES: CN1C(=O)[C@@H](NC(=O)c2n[nH]c(Cc3ccccc3)n2)COc2ccc(N3CC4(CCOCC4)C3)cc21
EC50 (L929): < 1 nM

SMILES: Cc1ccc(C#Cc2ccc3c(c2)N(C)C(=S)[C@@H](NC(=O)c2n[nH]c(Cc4ccccc4)n2)CO3)cc1
Activity (HT-29 [5]): Dose-Dependent Effect | Activity (HT-29 [2]): inactive | EC50 (HT-29 [3]): 17.4 nM | CC50 (HT-29 [4]): > 100000 nM

half-life [6]: < 5 min
SMILES: CN1C(=O)C(Cc2c[nH]c3ccccc23)NC1=S (stereo unspecified) [NECROSTATIN]

Kd [1]: 160 nM
SMILES: COC(=O)c1cccc(C#Cc2ccc3c(c2)N(C)C(=S)[C@@H](NC(=O)c2n[nH]c(Cc4ccccc4)n2)CO3)c1
Activity (HT-29 [2]): inactive | EC50 (HT-29 [3]): 10.8 nM | CC50 (HT-29 [4]): > 100000 nM

Kd [1]: 78 nM
SMILES: CN1C(=S)[C@@H](NC(=O)c2n[nH]c(Cc3ccccc3)n2)COc2ccc(C#Cc3ccccc3C#N)cc21
Activity (HT-29 [2]): inactive | EC50 (HT-29 [3]): 7.7 nM | CC50 (HT-29 [4]): > 100000 nM

SMILES: CN1C(=S)[C@@H](NC(=O)c2n[nH]c(Cc3ccccc3)n2)COc2ccc(C#Cc3ccccc3OC(F)(F)F)cc21
Activity (HT-29 [2]): inactive | EC50 (HT-29 [3]): 36.2 nM | CC50 (HT-29 [4]): > 100000 nM

SMILES: Cc1cccc(C#Cc2ccc3c(c2)N(C)C(=S)[C@@H](NC(=O)c2n[nH]c(Cc4ccccc4)n2)CO3)c1
Activity (HT-29 [2]): inactive | EC50 (HT-29 [3]): 27.6 nM | CC50 (HT-29 [4]): > 100000 nM

SMILES: CN1C(=S)[C@@H](NC(=O)c2n[nH]c(Cc3ccccc3)n2)COc2ccccc21
CC50 (HT-29 [4]): > 100000 nM

SMILES: CN1C(=S)[C@@H](NC(=O)c2n[nH]c(Cc3ccccc3)n2)COc2ccc(C#Cc3cccc(F)c3)cc21
Activity (HT-29 [2]): inactive | EC50 (HT-29 [3]): 22.6 nM | CC50 (HT-29 [4]): > 100000 nM

SMILES: CN1C(=S)[C@@H](NC(=O)c2n[nH]c(Cc3ccccc3)n2)COc2ccc(C#Cc3ccc(Cl)cc3)cc21
Activity (HT-29 [2]): inactive | EC50 (HT-29 [3]): 31.3 nM | CC50 (HT-29 [4]): > 100000 nM

SMILES: CN1C(=S)[C@@H](NC(=O)c2n[nH]c(Cc3ccccc3)n2)COc2ccc(C#CCc3ccccc3)cc21
Activity (HT-29 [2]): inactive | EC50 (HT-29 [3]): 14.3 nM | CC50 (HT-29 [4]): > 100000 nM

SMILES: Cc1ccccc1C#Cc1ccc2c(c1)N(C)C(=S)[C@@H](NC(=O)c1n[nH]c(Cc3ccccc3)n1)CO2
Activity (HT-29 [2]): inactive | EC50 (HT-29 [3]): 23.3 nM | CC50 (HT-29 [4]): > 100000 nM

SMILES: CN1C(=S)[C@@H](NC(=O)c2n[nH]c(Cc3ccccc3)n2)COc2ccc(C#Cc3ccc(OC(F)(F)F)cc3)cc21
Activity (HT-29 [2]): inactive | EC50 (HT-29 [3]): 10.4 nM | CC50 (HT-29 [4]): > 100000 nM

SMILES: CN1C(=S)[C@@H](NC(=O)c2n[nH]c(Cc3ccccc3)n2)COc2ccc(C#Cc3ccccc3[N+](=O)[O-])cc21
Activity (HT-29 [2]): inactive | EC50 (HT-29 [3]): 15.1 nM | CC50 (HT-29 [4]): > 100000 nM

SMILES: CN1C(=S)[C@@H](NC(=O)c2n[nH]c(Cc3ccccc3)n2)COc2ccc(C#Cc3ccc(F)cc3)cc21
Activity (HT-29 [2]): inactive | EC50 (HT-29 [3]): 22.5 nM | CC50 (HT-29 [4]): > 100000 nM

SMILES: COc1ccccc1C#Cc1ccc2c(c1)N(C)C(=S)[C@@H](NC(=O)c1n[nH]c(Cc3ccccc3)n1)CO2
Activity (HT-29 [2]): inactive | EC50 (HT-29 [3]): 10.7 nM | CC50 (HT-29 [4]): > 100000 nM

SMILES: CN1C(=S)[C@@H](NC(=O)c2n[nH]c(Cc3ccccc3)n2)COc2ccc(C#Cc3cccc(OC(F)(F)F)c3)cc21
Activity (HT-29 [2]): inactive | EC50 (HT-29 [3]): 27 nM | CC50 (HT-29 [4]): > 100000 nM

SMILES: CN1C(=S)[C@@H](NC(=O)c2n[nH]c(Cc3ccccc3)n2)COc2ccc(C#Cc3ccccc3F)cc21
Activity (HT-29 [2]): inactive | EC50 (HT-29 [3]): 32.3 nM | CC50 (HT-29 [4]): > 100000 nM

SMILES: COc1ccc(C#Cc2ccc3c(c2)N(C)C(=S)[C@@H](NC(=O)c2n[nH]c(Cc4ccccc4)n2)CO3)cc1
Activity (HT-29 [2]): inactive | EC50 (HT-29 [3]): 299 nM | CC50 (HT-29 [4]): > 100000 nM

Kd [1]: 92 nM
SMILES: CN1C(=S)[C@@H](NC(=O)c2n[nH]c(Cc3ccccc3)n2)COc2ccc(C#Cc3ccc(C#N)cc3)cc21
Activity (HT-29 [2]): inactive | EC50 (HT-29 [3]): 6.3 nM | CC50 (HT-29 [4]): > 100000 nM

SMILES: CN1C(=S)[C@@H](NC(=O)c2n[nH]c(Cc3ccccc3)n2)COc2ccc(C#C[Si](C)(C)C)cc21
Activity (HT-29 [2]): inactive | EC50 (HT-29 [3]): 20.5 nM | CC50 (HT-29 [4]): > 100000 nM

SMILES: COc1cccc(C#Cc2ccc3c(c2)N(C)C(=S)[C@@H](NC(=O)c2n[nH]c(Cc4ccccc4)n2)CO3)c1
Activity (HT-29 [2]): inactive | EC50 (HT-29 [3]): 11.1 nM | CC50 (HT-29 [4]): > 100000 nM

SMILES: CN1C(=O)[C@@H](NC(=O)c2nnc(Cc3ccccc3)[nH]2)COc2ccc(C#CC(C)(C)O)cc21 [OCADUSERTIB]
EC50 (L929): < 1 nM

SMILES: COC(=O)c1ccccc1C#Cc1ccc2c(c1)N(C)C(=S)[C@@H](NC(=O)c1n[nH]c(Cc3ccccc3)n1)CO2
Activity (HT-29 [2]): inactive | EC50 (HT-29 [3]): 32.9 nM | CC50 (HT-29 [4]): > 100000 nM

SMILES: CN1C(=S)[C@@H](NC(=O)c2n[nH]c(Cc3ccccc3)n2)COc2ccc(C#Cc3cccc(Cl)c3)cc21
Activity (HT-29 [2]): inactive | EC50 (HT-29 [3]): 23.9 nM | CC50 (HT-29 [4]): > 100000 nM

SMILES: CN1C(=S)[C@@H](NC(=O)c2n[nH]c(Cc3ccccc3)n2)COc2ccc(C#Cc3ccccc3C(F)(F)F)cc21
Activity (HT-29 [2]): inactive | EC50 (HT-29 [3]): 41.3 nM | CC50 (HT-29 [4]): > 100000 nM

SMILES: CN1C(=S)[C@@H](NC(=O)c2n[nH]c(Cc3ccccc3)n2)COc2ccc(C#Cc3ccccc3)cc21
Activity (HT-29 [2]): inactive | EC50 (HT-29 [3]): 12.7 nM | CC50 (HT-29 [4]): > 100000 nM

SMILES: CN1C(=S)[C@@H](NC(=O)c2n[nH]c(Cc3ccccc3)n2)COc2ccc(C#Cc3cccc(C(F)(F)F)c3)cc21
Activity (HT-29 [2]): inactive | EC50 (HT-29 [3]): 47.8 nM | CC50 (HT-29 [4]): > 100000 nM

SMILES: CN1C(=S)[C@@H](NC(=O)c2n[nH]c(Cc3ccccc3)n2)COc2ccc(C#Cc3ccccc3Cl)cc21
Activity (HT-29 [2]): inactive | EC50 (HT-29 [3]): 14 nM | CC50 (HT-29 [4]): > 100000 nM
